Measured values taken from PubChem BioAssay (NCI).
Several values for one entry are separate records, joined by “and”; a condition that tells them apart may be missing. Equal values may be shown once.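 Five compound concentrations were applied to cells in 96-well plates for 48 hours; endpoints were derived by simple linear interpolation of the resulting dose-response curve. GI50 = concentration required for 50% inhibition of growth. The concentration for full growth arrest is given as TGI.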

Assays:
Assay in all cases: NCI-60 cell line screen, 48 h
[1] = test system: OVCAR-5 ovarian
[2] = test system: HCT-15 colon
[3] = test system: MALME-3M melanoma
[4] = test system: UACC-62 melanoma
[5] = test system: SF-295 CNS
[6] = test system: NCI-H522 lung
[7] = test system: HCT-116 colon
[8] = test system: SW-620 colon
[9] = test system: TK-10 renal
[10] = test system: SF-268 CNS
[11] = test system: HCC-2998 colon
[12] = test system: SK-MEL-2 melanoma
[13] = test system: SNB-75 CNS
[14] = test system: SF-539 CNS
[15] = test system: 786-0 renal
[16] = test system: A498 renal
[17] = test system: HL-60(TB) leukemia
[18] = test system: M14 melanoma
[19] = test system: NCI-H23 lung
[20] = test system: U251 CNS
[21] = test system: SK-MEL-5 melanoma
[22] = test system: CCRF-CEM leukemia
[23] = test system: SK-MEL-28 melanoma
[24] = test system: A549 NSCLC
[25] = test system: OVCAR-4 ovarian
[26] = test system: SNB-19 CNS
[27] = test system: HOP-92 NSCLC
[28] = test system: KM12 colon
[29] = test system: COLO 205 colon
[30] = test system: OVCAR-8 ovarian
[31] = test system: HT29 colon
[32] = test system: OVCAR-3 ovarian
[33] = test system: MOLT-4 leukemia
[34] = test system: KM20L2 colon
[35] = test system: SNB-78 CNS
[36] = test system: UO-31 renal
[37] = test system: SN12C renal
[38] = test system: RXF 393 renal
[39] = test system: EKVX NSCLC
[40] = test system: HOP-18 NSCLC
[41] = test system: UACC-257 melanoma
[42] = test system: SR leukemia
[43] = test system: IGROV1 ovarian
[44] = test system: DMS 114 small cell lung
[45] = test system: K-562 leukemia
[46] = test system: LXFL 529 NSCLC
[47] = test system: M19-MEL melanoma
[48] = test system: HOP-62 NSCLC
[49] = test system: DMS 273 small cell lung
[50] = test system: SK-OV-3 ovarian
[51] = test system: CAKI-1 renal
[52] = test system: NCI-H460 lung
[53] = test system: DU-145 prostate
[54] = test system: RXF-631 renal
[55] = test system: RPMI-8226 leukemia
[56] = test system: LOX IMVI melanoma
[57] = test system: MDA-MB-435
[58] = test system: T-47D breast
[59] = test system: ACHN renal
[60] = test system: NCI-H226 lung
[61] = test system: MDA-MB-231 breast
[62] = test system: NCI/ADR-RES ovarian
[63] = test system: DLD-1 colon
[64] = test system: BT-549 breast
[65] = test system: MCF7 breast
[66] = test system: HS 578T breast
[67] = test system: XF 498 CNS

`O=C1C(=C2CCCC2)CCC1CN1CCCCC1` (configuration not stated) was tested, and the TGI [1] was 39.8 µM, the TGI [2] was 31.2 µM and the TGI [3] was 30.5 µM. It also gave a TGI [4] of 34 µM, a TGI [5] of over 100 µM and a TGI [6] of 3.45 µM. The TGI [7] was 38.1 µM, the TGI [8] was 32.1 µM and the TGI [9] was 27.1 µM. For the same compound, the TGI [10] was 37.5 µM, the TGI [11] was 29.8 µM and the TGI [12] was 30.7 µM. It also gave a TGI [13] of 15.5 µM, a TGI [14] of 50.1 µM and a TGI [15] of 26.4 µM. The TGI [16] was 35.7 µM, the TGI [17] was 21.9 µM and the TGI [18] was 29.6 µM. The TGI [19] was 36.4 µM, the TGI [20] was over 100 µM and the TGI [21] was 34.1 µM. It also gave a TGI [22] of 36.6 µM, a TGI [23] of 31.3 µM and a TGI [24] of over 100 µM. The TGI [25] was 30.3 µM, the TGI [26] was over 100 µM and the TGI [27] was 37.7 µM. For the same compound, the TGI [28] was 39.7 µM, the TGI [29] was 73.5 µM and the TGI [30] was 43.4 µM. It also gave a TGI [31] of 42.1 µM, a TGI [32] of 30.6 µM and a TGI [33] of 41.9 µM. The TGI [34] was 32.9 µM, the TGI [35] was 41.4 µM and the TGI [36] was over 100 µM. For the same compound, the TGI [37] was 30.6 µM, the TGI [38] was 30 µM and the TGI [39] was 35.4 µM. It also gave a TGI [40] of 28.7 µM, a TGI [41] of 34.8 µM and a TGI [42] of 47.1 µM. It also gave a TGI [43] of 36.3 µM, a TGI [44] of 41.2 µM and a TGI [45] of 47.1 µM. It also gave a TGI [46] of 26.2 µM and a TGI [47] of over 100 µM.
For `CCCCCCCCCC[C@@H](O)[C@@H]1CC[C@@H]([C@@H]2CC[C@@H]([C@@H](O)CCCCCCCCCC[C@H](O)CC3=CC(C)OC3=O)O2)O1` (some centres not stated), the GI50 [48] was 4.27 µM, the TGI [48] was 15.4 µM and the TGI [49] was 13.5 µM. It also gave a GI50 [1] of over 75.4 µM, a TGI [1] of over 100 µM and a TGI [50] of 21.9 µM. For the same compound, the GI50 [2] was 4.23 µM, the TGI [2] was over 100 µM and the GI50 [3] was 2.13 µM. For the same compound, the TGI [3] was 3.86 µM and 7.42 µM, the GI50 [4] was 7.27 µM and the GI50 [51] was 3.62 µM. For the same compound, the TGI [51] was over 65.3 µM, the GI50 [5] was 0.686 µM and the TGI [5] was over 100 µM. The GI50 [52] was 3.4 µM, the TGI [52] was over 100 µM and the TGI [6] was 13.8 µM. The TGI [7] was 28.1 µM, the GI50 [53] was 23.5 µM and the TGI [53] was over 100 µM. For the same compound, the GI50 [8] was 4.82 µM, the TGI [8] was over 100 µM and the GI50 [9] was 5.18 µM. The TGI [9] was 9.07 µM and 26 µM, the GI50 [10] was 3.29 µM and the TGI [11] was 9.13 µM. The TGI [54] was 19.4 µM, the GI50 [12] was 1.23 µM and the TGI [12] was 4.68 µM and 31.2 µM. The GI50 [13] was 6.08 µM, the TGI [13] was 8.58 µM and 18 µM and the TGI [14] was 9.39 µM and 13.3 µM. The GI50 [15] was 2.49 µM, the TGI [15] was 7.95 µM and 12.1 µM and the GI50 [16] was 8.48 µM. The TGI [16] was 8.64 µM and 34.9 µM, the GI50 [17] was 1.54 µM and the TGI [17] was 2.96 µM and 5.84 µM. For the same compound, the GI50 [18] was 5.47 µM, the TGI [18] was 5.16 µM and 29.6 µM and the GI50 [55] was 7.14 µM. The TGI [20] was over 46 µM, the TGI [21] was 3.11 µM and 2.6 µM and the GI50 [22] was 2.78 µM. For the same compound, the GI50 [56] was 4.26 µM, the GI50 [23] was 5.25 µM and the TGI [23] was over 28.8 µM. The GI50 [57] was 4.04 µM, the GI50 [24] was 3.05 µM and the TGI [24] was 38.5 µM. The TGI [25] was over 51.4 µM, the TGI [58] was 40.4 µM and the TGI [26] was 24.6 µM. For the same compound, the GI50 [27] was 10.3 µM, the TGI [27] was 8.09 µM and 33.8 µM and the GI50 [28] was over 100 µM. For the same compound, the GI50 [59] was 2.26 µM, the TGI [59] was 5.75 µM and 20.7 µM and the TGI [29] was over 27.5 µM. For the same compound, the TGI [30] was 8.06 µM and > 54.7 µM, the TGI [60] was 3.49 µM and the GI50 [31] was 26.4 µM. For the same compound, the GI50 [32] was 1.47 µM, the TGI [32] was 3.34 µM and 22.3 µM and the GI50 [33] was 2.93 µM. For the same compound, the TGI [34] was over 100 µM, the TGI [35] was 56.2 µM and the GI50 [61] was 8.01 µM. For the same compound, the TGI [61] was 24.6 µM, the TGI [62] was 5.34 µM and 35.8 µM and the GI50 [36] was 2.42 µM. The TGI [36] was 5.24 µM and > 20 µM, the TGI [63] was over 100 µM and the GI50 [37] was 16 µM. It also gave a TGI [37] of over 100 µM, a TGI [64] of 51.6 µM and a TGI [38] of 9.8 µM. For the same compound, the GI50 [39] was 1.98 µM, the TGI [39] was 8.5 µM and > 80 µM and the GI50 [65] was 3.52 µM. The TGI [65] was over 100 µM, the GI50 [41] was under 0.0462 µM and the TGI [41] was 7.89 µM. The TGI [42] was 6.32 µM, the GI50 [43] was 4.4 µM and the TGI [43] was 7.47 µM and 36.8 µM. The TGI [44] was 11.2 µM, the GI50 [66] was 14 µM and the GI50 [45] was 2.94 µM. For the same compound, the TGI [45] was over 100 µM, the TGI [46] was 25.6 µM and the TGI [47] was over 100 µM.
`Cc1ccc(S(=O)(=O)N/N=C(\c2nc3ccc([N+](=O)[O-])cc3[nH]c2=O)C(O)c2ccc([N+](=O)[O-])cc2)cc1` (configuration not stated) showed a TGI [48] of over 100 µM, a TGI [49] of over 100 µM and a TGI [1] of over 100 µM. It also gave a TGI [50] of over 100 µM, a TGI [2] of over 100 µM and a TGI [3] of over 100 µM. For the same compound, the TGI [4] was over 100 µM, the TGI [51] was over 100 µM and the TGI [5] was over 100 µM. It also gave a TGI [52] of over 100 µM, a TGI [6] of over 100 µM and a TGI [8] of over 100 µM. For the same compound, the TGI [9] was over 100 µM, the TGI [10] was over 100 µM and the TGI [11] was over 100 µM. For the same compound, the TGI [12] was over 100 µM, the TGI [13] was over 100 µM and the TGI [14] was over 100 µM. For the same compound, the TGI [15] was over 100 µM, the TGI [16] was over 100 µM and the TGI [17] was 95.6 µM. The TGI [18] was over 100 µM, the TGI [19] was over 100 µM and the TGI [55] was over 100 µM. It also gave a TGI [20] of over 100 µM, a TGI [21] of over 100 µM and a TGI [22] of over 100 µM. It also gave a TGI [56] of over 100 µM, a TGI [23] of over 100 µM and a TGI [24] of over 100 µM. The TGI [25] was over 100 µM, the TGI [67] was over 100 µM and the TGI [26] was over 100 µM. The TGI [27] was over 100 µM, the TGI [59] was over 100 µM and the TGI [29] was over 100 µM. For the same compound, the TGI [30] was over 100 µM, the TGI [32] was over 100 µM and the TGI [33] was over 100 µM. For the same compound, the TGI [34] was over 100 µM, the TGI [35] was over 100 µM and the TGI [36] was over 100 µM. For the same compound, the TGI [63] was over 100 µM, the TGI [37] was over 100 µM and the TGI [38] was over 100 µM. The TGI [39] was over 100 µM, the TGI [41] was over 100 µM and the TGI [43] was over 100 µM. It also gave a TGI [44] of over 100 µM, a TGI [45] of over 100 µM and a TGI [46] of over 100 µM. It also gave a TGI [47] of over 100 µM.
